Patent US20100221315A1, “VESICULAR FORMULATIONS CONTAINING ORGANIC ACID PRODRUGS, PROCESS FOR THEIR PREPARATION” (UNIVERSIDADE DE LISBOA, priority 2006, published 2010)
≈ marks a conversion by molar mass, not a printed value. Where two headings read alike, the source gives them in different places.

How the values were obtained:
[1] = Incorporation efficiency (EE) in liposomes prepared by hydration of a lipid and drugs film; type: physicochemical
Description: Different lipids (20 μmol) and the prodrug (2 μmol) were weighed out, transferred to a round-bottom flask, dissolved in chloroform and the organic solvent evaporated using a rotating evaporator to form a lipid film. This film was then dried in a vacuum bomb for the removal of chloroform residues and 1 ml of isotonic phosphate pH 7.4 buffer (PBS) was added at a temperature at least 10° C. higher than the phase transition temperature (TC) of the lipids used. The mixture was stirred for an additional five minutes to complete hydration of the lipid film and, after a few minutes at rest, it was stirred again for a further five minutes.
In order to determine the incorporation efficiency (EE), aliquots of the liposomal suspension after hydration and of the liposomal suspension obtained after centrifugation, supernatant removal and re-suspension of the sediment in its original volume (before being centrifuged) were collected. The EEs were calculated as the ratio between the prodrug concentration in the re-suspended liposome suspension and the prodrug concentration in the initial liposome suspension. Tables 2 to 6 show the EE values obtained for several formulations of different prodrugs.
All the prepared suspensions were checked using an optical phase contrast microscope set at 400× magnification.

[2] = test system: Mycobacterium tuberculosis H37Ra; experiment: Determination of the Minimum Inhibitory Concentration (MIC) by successive dilutions; type: cell-based; settings: for MIC: broth, pH 5.5, about 21 days at 37° C.; for fold lower MIC values than those for PZA and POA: in vitro, pH 5.5
Description: Mycobacterium tuberculosis H37Ra was used as the reference strain. The esters C12, C14 and C16, pyrazinamide (PZA) and pyrazinoic acid (POA) were prepared in stock solutions of dimethyl sulfoxide (DMSO) at a concentration of 8 mg/ml. The Minimum Inhibitory Concentration was determined by the method of successive dilutions. The culture medium Myco (nutrient Broth-Difco, 10 g/L; Middlebrook 7H9-Difco, 10 g/L, 0,05% glucose and 0.01% of Tween 80) supplemented with OADC (Difco) was used and the pH was adjusted to 5.5.
To each test tube of each stage of the successive dilutions of the test compound, a sufficient volume of bacterial inoculum was added so as to provide a final concentration of 10^4 CFU/ml (CFU=Colony Forming Units). The tubes were incubated for about 21 days at 37° C. The onset of turbidity in the control tube (free of drugs) was checked for on a regular basis. Once turbidity appeared in the control test tube, the results were recorded where the MIC value was defined as the lowest concentration of drug able to inhibit the growth of mycobacteria (note there was a total absence of turbidity in the first test tube of the successive dilution sequence). These tests were performed in triplicate for each test compound. As expected, the MIC for PZA was 100 μg/ml.

in vitro [3] = type: in vitro ADME; settings: rat, tissue homogenate
Description: For each of the compounds in free form, 50 μl of rat liver homogenate, 1400 μl of PBS and 50 μl of compound stock solution were added (3.6×10^−3 M) in a test tube. The tubes were incubated at 37° C. under agitation, and aliquots of 150 μl were removed every minute, diluted with 600 μl of acetonitrile (ACN), and then centrifuged. The supernatant was removed and placed into the vials of an autosampler and analysed by HPLC.
To each liposomal suspension in a test tube, 50 μl of homogenate was added and diluted with PBS to a final volume of 1500 μl. The final drug concentration was 2×10^−3 M. The test tubes were incubated at 37° C. under agitation and sample collection and analysis were carried out by the same procedure used for determining the stability of liposomal drugs in plasma.

M. tuberculosis H37Ra = experiment: Antimycobacterial activity of free and encapsulated compounds in macrophage infected with Mycobacterium tuberculosis; type: cell-based; settings: infected J774.A1 macrophage
Description: In evaluating the antimycobacterial activity, a conventional method (Anes et al., Nat Cell Biol, 2003) was employed using a cell culture of […] (cell line J774.A1).
Briefly, the macrophage was plated in a DMEM medium having a high glucose concentration and supplemented with 10% Foetal Bovine Serum, in 24 well tissue culture plates at 37° C. in a 5% carbon dioxide atmosphere. As soon as about 80% confluence was obtained, the cells were infected with M. tuberculosis H37Ra at a rate such that an inoculum concentration of 10^6 mycobacteria/ml per well was obtained.
After 3 hours of bacterial uptake, 1 to 5 bacillus per infected cell and a total of about 10E4-5 bacteria/ml were expected per well. Washing of the infected cultures with pH 7 buffer PBS was then carried out three times in order to eliminate all bacteria non internalised by the macrophage. Fresh DMEM medium was added with and without the test compound.
The incubation period was 7 days using fresh medium every 3 days. The compounds were added after 3 hours of internalization and remained in contact with the infected cells until fresh medium DMEM was added.
After 3 hours, 1 day, 3 days, 5 days and 7 days from the beginning of the infection, intracellular bacteria were recovered for lyses of the infected macrophage with a 1% IGEPAL solution (Sigma) in water. At this concentration, macrophage are lysed with no effect on the viability of the mycobacteria.
After successive dilutions of the lysate with water, the surviving bacteria were cultured in Middlebrook 7H10 medium supplemented with OADC (Difco). After about 2 weeks of incubation at 37° C. the Unity Forming Colonies (UFCs) were counted. Each test was carried out in triplicate in independent experiments.

[4] = Incorporation efficiency (EE) in liposomes prepared by hydration of a lipid and prodrugs lyophilisate; type: physicochemical; settings: hydration of lipids and prodrugs lyophilisate
Description: Solutions were prepared containing 20 μmol of lipids and 2 μmol of prodrug in 10 ml of tert-butanol and were filtered by sterile filtration. These solutions were then frozen in liquid nitrogen and lyophilised for 24 hours.
After lyophilisation, the solutions were hydrated by the addition of 1 ml of PBS at a temperature of at least 10° C. higher than that of the phase transition temperature (TC) of the lipids, using an ultrasound water bath for two minutes. The incorporation efficiencies (EE) were calculated as described above for the liposome preparation carried out by hydration of a lipid film and are shown in Table 7.
All the suspensions produced were checked using an optical microscope set at 400× magnification.

in vitro [5] = type: in vitro ADME; settings: human, plasma
Description: 750 μl of plasma, 700 μl of PBS and 50 μl of stock solution of the compound (3.6×10^−3M) were added to each one of the test compounds in the free form in a test tube. The tube was incubated at 37° C. under agitation, and 150 μl aliquots were removed every five minutes, diluted with 600 μl of acetonitrile (ACN), and then centrifuged. The supernatant was removed and injected into an HPLC system. The area values obtained for each chromatogram were used to determine the half-life of each prodrug.
To each liposomal suspension in a test tube, 750 μl of plasma was added and diluted with PBS to a final volume of 3000 μl. The final drug concentration in each tube was 2×10^−3 M. The test tubes were then incubated at 37° C. with agitation and 150 μl aliquots were then removed at set time intervals, diluted with 600 μl of acetonitrile (ACN), and then centrifuged. For the remainder of the process, the same procedure was followed as described above for the free form case.

[6] = lipid formulation DMPC:DMPG (9:1)
[7] = Mycobacterium tuberculosis, H37RA, 504 h, pH 5.5, M. tuberculosis H37Ra, read-out: MIC
[8] = pH 7.4, Half-life (min) Free form
[9] = pH 7.4, Half-life (min) Vesicular form (DMPC)

Row | Structure (SMILES) | EE (%) incorporation efficiency ([1]; lipid formulation DMPC) [%] | EE (%) incorporation efficiency ([1]; lipid formulation DPPC) [%] | MIC [2, 7] [mg/L] | half-life (in vitro [3]; [8]) [h] | half-life (in vitro [3]; [9]) [h] | intracellular bacterial growth after 7 days of infection (M. tuberculosis H37Ra) | EE (%) incorporation efficiency ([4]; lipid formulation DMPC) [%] | half-life (in vitro [5]; [8]) [h] | half-life (in vitro [5]; [9]) [h] | also measured
1 | CCCCCCCCCCOC(=O)c1ccccc1 [BD, decyl benzoate] | 94.1 | 93.4 |  |  |  |  |  |  |  | 
2 | CCCCCCCCOC(=O)C=Cc1ccccc1 [CO, octyl cinnamate] | 92.2 | 94.5 |  |  |  |  |  |  |  | 
3 | CCCCCCCCCCCCCCNC(=O)c1cnccn1 [Compound A14, N-tetradecyl pyrazinamide] | 95.2 | 96.4 |  |  |  |  |  |  |  | EE (%) incorporation efficiency [1, 6]: 98.6%
4 | CCCCCCCCCCCCCCCCNC(=O)c1cnccn1 [Compound A16, hexadecyl pyrazinamide] | 97.0 |  |  |  |  |  |  |  |  | EE (%) incorporation efficiency ([1]; lipid formulation DMPG:DMPG 9:1): 98.4%; EE (%) incorporation efficiency ([1]; lipid formulation DPPM): 98.1%
5 | CCCCCCCCCCCCOC(=O)c1cnccn1 [Compound C12, dodecyl pyrazinoate] | 94.7 | 93.1 | 20 to 40 (≈ 68.4 to 137 µM) | 0.0333 | 0.9 | latency was observed | 95.6 | 0.25 | 1.3 | fold lower MIC values than those for PZA and POA [2]: 10 fold; difference in bactericidal effect between DPPC and DMPC formulations (M. tuberculosis H37Ra; liposomal forms): no such significant differences; increase of bactericidal effect by encapsulation in liposomes relatively to free form (M. tuberculosis H37Ra; FIG. 1B): about 50%; bactericidal effect, comparison of compounds (M. tuberculosis H37Ra; free or vesicular form, FIG. 2A, 2B): greatest bactericidal effect; EE (%) incorporation efficiency ([1]; lipid formulation DMPC:DMPG (7:3)): 82.7%; EE (%) incorporation efficiency [1, 6]: 87.0%; EE (%) incorporation efficiency ([1]; lipid formulation DPPC:DPPG (7:3)): 90.2%; EE (%) incorporation efficiency ([1]; lipid formulation DPPC:DPPG (9:1)): 87.2%
6 | CCCCCCCCCCCCCCOC(=O)c1cnccn1 [Compound C14, tetradecyl pyrazinoate] |  |  | 10 to 20 (≈ 31.2 to 62.4 µM) | 0.0667 | 2.82 |  | 98.2 | 0.317 | 2.63 | fold lower MIC values than those for PZA and POA [2]: 10 fold; EE (%) incorporation efficiency ([4]; lipid formulation DPPC): 97.4%
7 | CCCCCCCCCCCCCCCCOC(=O)c1cnccn1 [Compound C16, hexadecyl pyrazinoate] |  |  | 20 to 40 (≈ 57.4 to 115 µM) | 0.35 | 12.8 |  | 97.3 | 1.13 | 3.57 | 
8 | O=C(O)c1cnccn1 [POA, pyrazinoic acid, reference compound] |  |  | 100 to 200 (≈ 806 to 1610 µM) |  |  | bacteria recovered their ability of intracellular growth |  |  |  | 
9 | NC(=O)c1cnccn1 [PZA, pyrazinamide, reference compound] |  |  | 100 (≈ 812 µM) |  |  | bacteria recovered their ability of intracellular growth |  |  |  | MIC ([2]; M. tuberculosis H37Ra): 100 to 200 mg/L
